The format of this data set is physicochemical. From the text:
Several cationic antimicrobial agents are available for incorporation into the antimicrobial coating. The resistances of these cationic antimicrobial agents to degradation vary due to differences in their chemical structure, molecular weight, and species of anions and anionic surfactants that tend to degrade the long lifetime of the antimicrobial coating. […] Mixtures of antimicrobial agents can be used, for example to expand the range of bacteria against which the coating is effective.

In US20110145975A1, “P0WDER-FREE GLOVE WITH STABLE AND FAST ACTING MICROBIAL COATING” (ANSELL LIMITED, priority 2009, published 2011) one finds resistance to degradation data, which are given here for one substance.

For poly(hexamethylene biguanide) chloride, the resistance to degradation entry is listed as “more resistant to degradation than CHG”.
